In brackets after ≈: the same amount, converted by molar mass.
What was measured:
[1] = Solubilization of actives in 3 wt-% polymer solution (high-throughput, UV/VIS); format: physicochemical
Method: Solubilization measurements were carried out with a highthroughput screening robot. This set up dosed 10 mg solid active and […] of the respective 3 wt-% liquid polymer solution (in CIPAC water D) into wells on a micro titer plate. After the addition of stirring bars and 24 hours incubation time the samples were filtrated via polypropylene filters in order to separate dissolved active and its solid form ated. The amount of solubilized active was determined via UV/VIS spectroscopy.

[2] = at 20° C.; cited from earlier work
[3] = 10 mg solid active, without polymer or in 3 wt-% polymer solution in CIPAC water D, 24 hours

CC(O)(Cn1cncn1)c1ccc(Oc2ccc(Cl)cc2)cc1C(F)(F)F (centres unmarked) [BAS 750 F, 2-[4-(4-chlorophenoxy)-2-(trifluoromethyl)phenyl]-1-(1H-1,2,4-triazol-1-yl)propan-2-ol]
Solubility of BAS 750 F [1, 3]: 15 pmm

N#Cc1nn(-c2c(Cl)cc(C(F)(F)F)cc2Cl)c(N)c1[S+]([O-])C(F)(F)F (centres unmarked) [Fipronil, fipronil]
Solubility of fipronil [1]: 12 pmm

Cn1cc(C(=O)Nc2ccccc2-c2cc(F)c(F)c(F)c2)c(C(F)F)n1 [fluxapyroxad]
water solubility [2]: 4 µg/mL (≈ 10.5 µM)
Solubility of fluxapyroxad ([1]; 10 mg solid active, alone or in 3 wt-% polymer solution in CIPAC water D, 24 hours): 10 pmm

NC(=O)N1c2ccccc2C=Cc2ccccc21 [carbamazepine]
Solubility of carbamazepine [1, 3]: 181 pmm
